This assay addresses T1, Prostaglandin G/H synthase 2 (Homo sapiens, UniProt P35354).
T1 sequence (P35354 whole entry): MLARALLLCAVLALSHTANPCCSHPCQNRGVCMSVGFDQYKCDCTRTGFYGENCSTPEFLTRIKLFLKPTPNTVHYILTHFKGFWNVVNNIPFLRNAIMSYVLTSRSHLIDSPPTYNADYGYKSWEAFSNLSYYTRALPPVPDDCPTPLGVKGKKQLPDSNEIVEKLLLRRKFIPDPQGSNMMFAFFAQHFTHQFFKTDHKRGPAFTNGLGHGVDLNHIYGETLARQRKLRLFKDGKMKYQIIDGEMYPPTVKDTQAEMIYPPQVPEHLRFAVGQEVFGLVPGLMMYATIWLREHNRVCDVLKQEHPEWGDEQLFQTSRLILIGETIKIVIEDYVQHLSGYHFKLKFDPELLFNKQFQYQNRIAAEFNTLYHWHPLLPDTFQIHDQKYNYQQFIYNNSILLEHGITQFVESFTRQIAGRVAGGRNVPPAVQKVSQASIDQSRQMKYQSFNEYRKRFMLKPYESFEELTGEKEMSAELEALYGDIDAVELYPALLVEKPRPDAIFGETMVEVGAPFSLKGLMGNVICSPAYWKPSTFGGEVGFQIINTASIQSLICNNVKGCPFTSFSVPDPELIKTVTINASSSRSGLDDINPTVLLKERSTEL
Nature of the assay: IC50 value against recombinant human Prostaglandin G/H synthase 2 at 10 uM; not active.

We go through 1 compound from BindingDB's records for doi:10.1021/jm9805081 (Warner-Lambert, 1999).

Where only a bound is given, the exact number is not on record here.

For `CONC1=NC(=O)C(=Cc2cc(C(C)(C)C)c(O)c(C(C)(C)C)c2)O1` [5-[1-(3,5-Di-tert-butyl-4-hydroxy-phenyl)-meth-(Z)-ylidene]-2-methoxyamino-oxazol-4-one], the IC50 (as a rule, the concentration that inhibits the measured activity by half) was over 10 µM.
